Test results as given in the supplement of paper PMC5908809.

Legend:
[1] = test system: normal primary NK cells, pool 1 (3 donors) (IL-2 2.5 ng/mL); assay: drug sensitivity score (DSS) (DSS units); higher = more sensitive; extreme values may be limits of the assay; details: 72 h
DERL-7 (IL-2 2.5 ng/mL) [2] = assay: as above; details: 72 h
[3] = test system: normal primary NK cells, pool 1 (3 donors), resting (IL-2 0 ng/mL); assay: as above; details: 72 h
SNK-6 (IL-2 2.5 ng/mL) [4] = assay: as above; details: 72 h
YT (IL-2 2.5 ng/mL) [5] = assay: as above; details: 72 h
IMC-1 (IL-2 20 ng/mL) [6] = assay: as above; details: 72 h
[7] = test system: normal primary NK cells, pool 2 (3 donors) (IL-2 2.5 ng/mL); assay: as above; details: 72 h
[8] = test system: normal primary NK cells, pool 3 (3 donors) (IL-2 2.5 ng/mL); assay: as above; details: 72 h
NKL (IL-2 2.5 ng/mL) [9] = assay: as above; details: 72 h
KHYG-1 (IL-2 2.5 ng/mL) [10] = assay: as above; details: 72 h
NK-92 (IL-2 2.5 ng/mL) [11] = assay: as above; details: 72 h
KAI3 (IL-2 2.5 ng/mL) [12] = assay: as above; details: 72 h
NK-YS (IL-2 2.5 ng/mL) [13] = assay: as above; details: 72 h
[14] = test system: normal primary NK cells, pool 1 (3 donors) (IL-2 2.5 ng/mL); assay: percent inhibition of viability; higher = more inhibition; details: 72 h
DERL-7 (IL-2 2.5 ng/mL) [15] = assay: as above; details: 72 h
[16] = test system: normal primary NK cells, pool 1 (3 donors), resting (IL-2 0 ng/mL); assay: as above; details: 72 h
SNK-6 (IL-2 2.5 ng/mL) [17] = assay: as above; details: 72 h
YT (IL-2 2.5 ng/mL) [18] = assay: as above; details: 72 h
IMC-1 (IL-2 20 ng/mL) [19] = assay: as above; details: 72 h
[20] = test system: normal primary NK cells, pool 2 (3 donors) (IL-2 2.5 ng/mL); assay: as above; details: 72 h
[21] = test system: normal primary NK cells, pool 3 (3 donors) (IL-2 2.5 ng/mL); assay: as above; details: 72 h
NKL (IL-2 2.5 ng/mL) [22] = assay: as above; details: 72 h
KHYG-1 (IL-2 2.5 ng/mL) [23] = assay: as above; details: 72 h
NK-92 (IL-2 2.5 ng/mL) [24] = assay: as above; details: 72 h
KAI3 (IL-2 2.5 ng/mL) [25] = assay: as above; details: 72 h
NK-YS (IL-2 2.5 ng/mL) [26] = assay: as above; details: 72 h
[27] = test system: normal NK cells expanded with K562-aAPC; assay: as above; details: 72 h, IL-2 2.5 ng/mL
Procedure: (§1)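 Drug sensitivity and resistance testing on K562-aAPC-expanded normal NK cells: 5 concentrations (10-fold steps over a 10,000-fold range), 72 h at 37 °C, viability by CellTiter-Glo normalised to DMSO and benzethonium chloride controls; DSS from the fitted curve.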

[28] = test system: normal NK cells expanded with K562-aAPC; assay: drug sensitivity score (DSS) (DSS units); higher = more sensitive; extreme values may be limits of the assay; details: 72 h; IL-2 2.5 ng/mL
Procedure: as §1

O=P1(NCCCl)OCCCN1CCCl (configuration not stated) [Ifosfamide] (max concentration tested 10000 nM)
Details	drug sensitivity score
DERL-7 (IL-2 2.5 ng/mL) [2]	0
IMC-1 (IL-2 20 ng/mL) [6]	0
KAI3 (IL-2 2.5 ng/mL) [12]	0
KHYG-1 (IL-2 2.5 ng/mL) [10]	0
NK-92 (IL-2 2.5 ng/mL) [11]	0
NK-YS (IL-2 2.5 ng/mL) [13]	0
NKL (IL-2 2.5 ng/mL) [9]	0
SNK-6 (IL-2 2.5 ng/mL) [4]	0
YT (IL-2 2.5 ng/mL) [5]	0
[1]	0
[3]	0.02
[7]	0
[8]	0
[28]	0

percent inhibition of viability [%]
Details	1 nM	10 nM	100 nM	1000 nM	10000 nM
DERL-7 (IL-2 2.5 ng/mL) [15]	-5.51	-7.54	-1.33	-3.22	-6.83
IMC-1 (IL-2 20 ng/mL) [19]	-7.45	-2.99	-8.91	-4.46	-9.5
KAI3 (IL-2 2.5 ng/mL) [25]	-7.61	-11.2	-10.2	-6.62	-0.66
KHYG-1 (IL-2 2.5 ng/mL) [23]	-2.87	-4.29	-7.54	-5.28	-6.85
NK-92 (IL-2 2.5 ng/mL) [24]	-16.3	-6.46	-7.42	-21.1	-17.7
NK-YS (IL-2 2.5 ng/mL) [26]	-1.93	-4.42	-4.13	1.8	-4.59
NKL (IL-2 2.5 ng/mL) [22]	-15.9	-21.4	-20.8	-20.4	-25.2
SNK-6 (IL-2 2.5 ng/mL) [17]	9.44	6.95	-7.05	-1.13	-14.1
YT (IL-2 2.5 ng/mL) [18]	-4.47	-6.22	-6.55	-4.33	-5.88
[14]	-11.2	-7.35	-2.79	-2.71	1.61
[16]	-18.3	-6.52	1.44	-5.18	12.7
[20]	-7.91	-9.22	-9.46	-8.83	-4.62
[21]	-13.4	-7.36	-10.1	-8.46	-1.46
[27]	-2.46	-7.15	-2.89	-5.04	-1.58

Cn1c(CCCC(=O)O)nc2cc(N(CCCl)CCCl)ccc21 [Bendamustine] (max concentration tested 10000 nM)
Details	drug sensitivity score
DERL-7 (IL-2 2.5 ng/mL) [2]	0
IMC-1 (IL-2 20 ng/mL) [6]	1.24
KAI3 (IL-2 2.5 ng/mL) [12]	1.09
KHYG-1 (IL-2 2.5 ng/mL) [10]	0.29
NK-92 (IL-2 2.5 ng/mL) [11]	0.59
NK-YS (IL-2 2.5 ng/mL) [13]	4.15
NKL (IL-2 2.5 ng/mL) [9]	8.66
SNK-6 (IL-2 2.5 ng/mL) [4]	5.85
YT (IL-2 2.5 ng/mL) [5]	0
[1]	2.59
[3]	4.14
[7]	3.11
[8]	3.81
[28]	4.02

percent inhibition of viability [%]
Details	1 nM	10 nM	100 nM	1000 nM	10000 nM
DERL-7 (IL-2 2.5 ng/mL) [15]	2.35	-0.75	-0.87	-0.14	8.22
IMC-1 (IL-2 20 ng/mL) [19]	-5.16	-3.14	0.53	1.92	25.3
KAI3 (IL-2 2.5 ng/mL) [25]	-0.41	1.91	1.35	-4.7	30.8
KHYG-1 (IL-2 2.5 ng/mL) [23]	-5.91	1.42	10.1	2.21	17.1
NK-92 (IL-2 2.5 ng/mL) [24]	-10.3	-2.08	7.9	-10.7	24.9
NK-YS (IL-2 2.5 ng/mL) [26]	-10.9	-2.18	8.61	4.45	63.6
NKL (IL-2 2.5 ng/mL) [22]	-5.33	-10.8	5.76	27.8	88.6
SNK-6 (IL-2 2.5 ng/mL) [17]	-1.78	-2.24	14.2	17.1	67
YT (IL-2 2.5 ng/mL) [18]	-6.57	-3.19	7.12	-0.08	0
[14]	-9.6	-0.97	-3.62	-12.8	60.6
[16]	-1.75	6.06	-6.12	-12.6	88.2
[20]	-6.1	-4.8	1.7	1.54	54.5
[21]	-2.58	1.8	5.19	5.5	54.3
[27]	3.13	1.48	-1.08	12.2	42.8

CC(C)[C@H](C(=O)Nc1ccc(C(=O)NO)cc1)c1ccccc1 [AR-42] (max concentration tested 10000 nM)
Details	drug sensitivity score
DERL-7 (IL-2 2.5 ng/mL) [2]	17.7
IMC-1 (IL-2 20 ng/mL) [6]	18.3
KAI3 (IL-2 2.5 ng/mL) [12]	24.6
KHYG-1 (IL-2 2.5 ng/mL) [10]	19.4
NK-92 (IL-2 2.5 ng/mL) [11]	22.9
NK-YS (IL-2 2.5 ng/mL) [13]	14.8
NKL (IL-2 2.5 ng/mL) [9]	18.9
SNK-6 (IL-2 2.5 ng/mL) [4]	18.9
YT (IL-2 2.5 ng/mL) [5]	14.9
[1]	16.6
[3]	15.9
[7]	15.4
[8]	15
[28]	17.3

percent inhibition of viability [%]
Details	1 nM	10 nM	100 nM	1000 nM	10000 nM
DERL-7 (IL-2 2.5 ng/mL) [15]	-0.01	2.48	-2.69	100	101
IMC-1 (IL-2 20 ng/mL) [19]	-2.38	-3.46	10.1	92.8	101
KAI3 (IL-2 2.5 ng/mL) [25]	-2.48	10.7	56.8	93.1	109
KHYG-1 (IL-2 2.5 ng/mL) [23]	-2.7	-4.06	8.15	104	109
NK-92 (IL-2 2.5 ng/mL) [24]	-16.8	-2.43	34.6	104	109
NK-YS (IL-2 2.5 ng/mL) [26]	-6.36	-5.82	4.66	76.3	108
NKL (IL-2 2.5 ng/mL) [22]	-5.13	-4.69	35.2	77.5	107
SNK-6 (IL-2 2.5 ng/mL) [17]	-0.12	1.49	22.2	88.3	101
YT (IL-2 2.5 ng/mL) [18]	-2.57	0.39	5.64	75.6	108
[14]	2.55	6.41	6.74	85.7	97.5
[16]	-9.37	-0.47	13.4	77.4	88.7
[20]	-13.5	-9.96	3.39	82.8	94.9
[21]	-3.19	-1.6	-0.03	82	98.4
[27]	5.85	0.8	9.74	87.9	101
